Literature values as cited in patent publication US20140256762A1, “ARTEMISININ-BASED COMBINATION THERAPY FOR TREATING VIRAL MEDIATED DISEASE” (priority 2012, published 2014).

Key:
[1] = background statement
[2] = background statement; remark: listed apart in the source

Compound	Genotoxic activity [1]	Toxicity ([1]; generally considered)	Solubility [2]
COc1ccc2cc3[n+](cc2c1OC)CCc1cc2c(cc1-3)OCO2 [Berberine, (5,6-Dihydro-9,10-dimethoxybenzo[g]-1,3-benzodioxolo[5,6-a]quinolizinium)]	no genotoxic activity	non-toxic	
CO[C@H]1O[C@@H]2O[C@@]3(C)CC[C@H]4[C@H](C)CC[C@@H]([C@H]1C)[C@@]24OO3 [artemether, (+)-(3-alpha,5a-beta,6-beta,8a-beta, 9-alpha,12-beta,12aR)-decahydro-10-methoxy-3,6,9-trimethyl-3,12-epoxy-12H-pyrano(4,3-j)-1,2-benzodioxepin]			lipid-soluble
C[C@@H]1CC[C@H]2[C@@H](C)C(=O)O[C@@H]3O[C@@]4(C)CC[C@@H]1[C@]32OO4 [artemisinin]			sparingly soluble in either water or oils
C[C@H]1[C@H](OC(=O)CCC(=O)O)O[C@@H]2O[C@@]3(C)CC[C@H]4[C@H](C)CC[C@@H]1[C@@]24OO3 [artesunate, 3R,5aS,6R,8aS,9R,10S,12R,12aR)-Decahydro-3,6,9-trimethyl-3,12-epoxy-12H-pyrano(4,3-j)-1,2-benzodioxepin-10-ol hydrogen succinate]			water-soluble
